Test results published in patent US6573246B1, “Modified ether glyceroglycolipids” (The Liposome Company, Inc., priority 1995, dated 2003).
Like-named read-outs stand apart in the source and are kept apart here. Values belong to the molecule of their own block, whether it stands above or below them.

Key:
[1] = tested on: OVCAR-3 cells (ovarian adenocarcinoma); assay: growth inhibition of OVCAR-3 cells in culture; format: cell-based, human; conditions: for IC50: OVCAR-3 ovarian cancer cell line, read-out: Gl50 (the source's name); for growth: increase in cell numbers relative to control wells (control = 100): OVCAR-3, 72 h
Protocol: (§1) Human epithelial cancer cell lines were grown from frozen stocks originally obtained from the ATCC, in media commonly used for growing these cells in culture. For example, A549 cells (non-small cell lung adenocarcinoma) were cultured in Ham's F-12 medium, T84 cells (colon carcinoma) were cultured in a 1:1 mixture of F-12 and DMEM while MCF-7 (breast adenocarcinoma) and A427 (large cell lung carcinoma) cells were cultured in DMEM. The media were supplemented with 10% fetal bovine serum, penicillin (50 U/ml), streptomycin (50 micogram/ml) and fungizone (0.5 microgram/ml). OVCAR-3 cells (ovarian adenocarcinoma) were cultured in RPMI 1640 medium supplemented with 20% FBS and 10 microgram/ml insulin.
(§2) Cells were subcultured into 24-well plates and the cell number was monitored daily. When the cells were in log phase, the media was replaced with one containing the required drug concentration, and the cells were incubated for 72 h. The increase in cell numbers relative to control wells (without any drug) was determined after the incubation. Stock solutions of the drugs ([…]) were prepared in ethanol and stored at −20 deg. C. Etherlipid solutions (30 micromolar) in the appropriate media were prepared fresh on the day of the experiment and serially diluted to give the required concentrations. The final concentration of ethanol in all wells was 0.1% (v/v).

[2] = tested on: MCF-7 (breast adenocarcinoma) cells; assay: growth inhibition of MCF-7 cells in culture; format: cell-based, human
Protocol: as §1, §2
(§3) Gl50 values are given as the mean ± standard deviation; the Gl50 value from each experiment “n” was generated from three individual wells on two separate plates (six total wells); n=1 for compounds 3-6; n=2 for most cell lines treated with compound 2 ^an=3; ^bn=2; ^cn=6; ^dn=8.

[3] = tested on: A549 cells (non-small cell lung adenocarcinoma); assay: growth inhibition of A549 cells in culture; format: cell-based, human
Protocol: as §1, §2, §3

[4] = tested on: MCF-7/Adr (adriamycin-resistant) cells; assay: growth inhibition of MCF7/adr cells in culture; format: cell-based, human; conditions: mean ± standard deviation, read-out: Gl50 (concentration of lipid required to inhibit the growth of fifty percent of the cells in culture)
Protocol: (§4) The Gl50 values for edelfosine (1), 2′-deoxy-β-D-arabinopyranosyl (2), 2′-deoxy-α-D-arabinopyranosyl (3), 2-O-methyl-β-D-glucopyranosyl (4), 2′-O-methyl-β-D-mannopyranosyl (5) and α-D-mannopyransoyl (6) on A-549, MCF-7, Lewis Lung, MCF-7/Adr (adriamycin-resistant), P388, P-388/Adr, L1210 and L1210/vmdr cells were determined and are set forth below (see Table 4) as the concentration (micromolar) of lipid required to inhibit the growth of fifty percent of the cells in culture.
as §3

[5] = tested on: HT29 cells; assay: growth inhibition of HT29 cells in culture; format: cell-based; conditions: mean ± standard deviation, read-out: Gl50 (concentration of lipid required to inhibit the growth of fifty percent of the cells in culture)
[6] = tested on: L1210 cells; assay: growth inhibition of L1210 cells in culture; format: cell-based; conditions: mean ± standard deviation, read-out: Gl50 (concentration of lipid required to inhibit the growth of fifty percent of the cells in culture)
Protocol: as §4, §3

[7] = tested on: L1210/vmdr cells; assay: growth inhibition of L1210/vmdr cells in culture; format: cell-based; conditions: mean ± standard deviation, read-out: Gl50 (concentration of lipid required to inhibit the growth of fifty percent of the cells in culture)
Protocol: as §4, §3

[8] = tested on: T84 cells (colon carcinoma); assay: growth inhibition of T84 cells in culture; format: cell-based, human
Protocol: as §1, §2

[9] = tested on: A427 (large cell lung carcinoma) cells; assay: growth inhibition of A427 cells in culture; format: cell-based, human
Protocol: as §1, §2

[10] = 72 h, 10% FBS-supplemented medium, read-out: Gl50 (concentration that inhibited cell growth by 50% in comparison to control cultures)
[11] = lipid concentration 10 μM, 72 h
[12] = lipid concentration 12.5 μM, 72 h
[13] = lipid concentration 15 μM, 72 h
[14] = lipid concentration 20 μM, 72 h
[15] = lipid concentration 6.5 μM, 72 h
[16] = lipid concentration 8.0 μM, 72 h

IC50 ([1]; Homo sapiens): > 30 µM
Structure (SMILES): CCCCCCCC/C=C\CCCCCCCCCCCCOP(=O)([O-])OCC[N+](C)(C)C [E, erucylphosphocholine]
growth: increase in cell numbers relative to control wells (control = 100) ([1]; lipid concentration 5 μM): 104.0 ± 12.2
growth: increase in cell numbers relative to control wells (control = 100) ([1]; lipid concentration 10 μM): 102.3 ± 16.1
growth: increase in cell numbers relative to control wells (control = 100) ([1]; lipid concentration 15 μM): 98.6 ± 7.8
growth: increase in cell numbers relative to control wells (control = 100) ([1]; lipid concentration 20 μM): 90.2 ± 6.6
growth: increase in cell numbers relative to control wells (control = 100) ([1]; lipid concentration 30 μM): 60 ± 10.7

IC50 ([1]; Homo sapiens): > 30 µM
Structure (SMILES): CCCCCCCCCCCCCCCCOP(=O)([O-])OCC[N+](C)(C)C [D, hexadecylphosphocholine]
growth: increase in cell numbers relative to control wells (control = 100) ([1]; lipid concentration 5 μM): 93.8 ± 16.5
growth: increase in cell numbers relative to control wells (control = 100) ([1]; lipid concentration 10 μM): 90.3 ± 11.3
growth: increase in cell numbers relative to control wells (control = 100) ([1]; lipid concentration 15 μM): 67.4 ± 14.5
growth: increase in cell numbers relative to control wells (control = 100) ([1]; lipid concentration 20 μM): 62.3 ± 10.7
growth: increase in cell numbers relative to control wells (control = 100) ([1]; lipid concentration 30 μM): 67.2 ± 12.5

IC50 ([2]; MCF7, mean ± standard deviation, read-out: Gl50 (concentration of lipid required to inhibit the growth of fifty percent of the cells in culture)): 18.2 µM
IC50 ([3]; mean ± standard deviation, read-out: Gl50 (concentration of lipid required to inhibit the growth of fifty percent of the cells in culture)): 15.55 ± 0.07 µM
IC50 [4]: 18.55 ± 0.07 µM
IC50 [5]: 20 ± 0.28 µM
IC50 [6]: 15.5 ± 0.35 µM
IC50 [7]: 16.5 ± 1.13 µM
Structure (SMILES): CCCCCCCCCCCCCCCCOC[C@H](CO[C@H]1O[C@H](CO)[C@@H](O)[C@H](O)[C@@H]1OC)OC [compound 5, 1-O-Hexadecyl-2-O-methyl-3-O-(2′-O-methyl-α-D-mannopyransoyl)-sn-glycerol]

IC50 ([2]; MCF-7, 72 h, 10% FBS-supplemented medium, read-out: Gl50 (concentration that inhibited cell growth by 50% in comparison to control cultures)): 6.5 µM
IC50 [8, 10]: 12.2 µM
IC50 [3, 10]: 8.3 µM
IC50 [9, 10]: 7 µM
IC50 [1]: 12 µM
Structure (SMILES): CCCCCCCCCCCCCCCCOC[C@H](CO[C@@H]1O[C@H](CO)[C@@H](O)[C@H](O)[C@H]1N)OC [A, 1-O-hexadecyl-2-O-methyl-3-O-(2′-amino-2′-deoxy-β-D-glucopyranosyl)-sn-glycerol]
concentration cytotoxic to the cells ([2]; MCF-7, 10% FBS-supplemented medium): 16 µM
proliferation: increase in cell numbers relative to control wells (control = 100) ([2]; MCF-7, lipid concentration 5 μM, 72 h): 60.60 ± 7.14
proliferation: increase in cell numbers relative to control wells (control = 100) ([2]; MCF-7, lipid concentration 6.5 μM, 72 h): 44.05 ± 11.70
proliferation: increase in cell numbers relative to control wells (control = 100) ([2]; MCF-7, lipid concentration 8.0 μM, 72 h): 31.46 ± 5.56
proliferation: increase in cell numbers relative to control wells (control = 100) ([2]; MCF-7, lipid concentration 10 μM, 72 h): 14.42 ± 8.39
proliferation: increase in cell numbers relative to control wells (control = 100) ([2]; MCF-7, lipid concentration 12.5 μM, 72 h): 3.90 ± 5.75
proliferation: increase in cell numbers relative to control wells (control = 100) ([2]; MCF-7, lipid concentration 15 μM, 72 h): 0
proliferation: increase in cell numbers relative to control wells (control = 100) ([2]; MCF-7, lipid concentration 20 μM, 72 h): 0
concentration cytotoxic to the cells ([8]; 10% FBS-supplemented medium): 20 µM
proliferation: increase in cell numbers relative to control wells (control = 100) ([8]; lipid concentration 5 μM, 72 h): 89.71 ± 12.72
proliferation: increase in cell numbers relative to control wells (control = 100) ([8]; lipid concentration 7.5 μM, 72 h): 75.16 ± 10.79
proliferation: increase in cell numbers relative to control wells (control = 100) [8, 11]: 64.89 ± 11.56
proliferation: increase in cell numbers relative to control wells (control = 100) [8, 12]: 39.59 ± 9.50
proliferation: increase in cell numbers relative to control wells (control = 100) [8, 13]: 15.06 ± 7.23
proliferation: increase in cell numbers relative to control wells (control = 100) [8, 14]: 0
concentration cytotoxic to the cells ([3]; 10% FBS-supplemented medium): 10.5 µM
proliferation: increase in cell numbers relative to control wells (control = 100) ([3]; lipid concentration 5 μM, 72 h): 82.28 ± 4.66
proliferation: increase in cell numbers relative to control wells (control = 100) [3, 15]: 67.39 ± 6.18
proliferation: increase in cell numbers relative to control wells (control = 100) [3, 16]: 45.17 ± 12.06
proliferation: increase in cell numbers relative to control wells (control = 100) [3, 11]: 0
proliferation: increase in cell numbers relative to control wells (control = 100) [3, 12]: 0
proliferation: increase in cell numbers relative to control wells (control = 100) [3, 13]: 0
proliferation: increase in cell numbers relative to control wells (control = 100) [3, 14]: 0
concentration cytotoxic to the cells ([9]; 10% FBS-supplemented medium): 10.5 µM
proliferation: increase in cell numbers relative to control wells (control = 100) ([9]; lipid concentration 5 μM, 72 h): 68.98 ± 9.25
proliferation: increase in cell numbers relative to control wells (control = 100) [9, 15]: 49.74 ± 5.16
proliferation: increase in cell numbers relative to control wells (control = 100) [9, 16]: 4.29 ± 5.16
proliferation: increase in cell numbers relative to control wells (control = 100) [9, 11]: 0
proliferation: increase in cell numbers relative to control wells (control = 100) [9, 12]: 0
proliferation: increase in cell numbers relative to control wells (control = 100) [9, 13]: 0
proliferation: increase in cell numbers relative to control wells (control = 100) [9, 14]: 0
growth: increase in cell numbers relative to control wells (control = 100) ([1]; lipid concentration 5 μM): 42.9 ± 13.4
growth: increase in cell numbers relative to control wells (control = 100) ([1]; lipid concentration 10 μM): 7.7 ± 2.3
growth: increase in cell numbers relative to control wells (control = 100) ([1]; lipid concentration 15 μM): 0
